Experimental data reported in US12509431B2, “1,4-dihydroquinazolinone compounds and uses thereof” (Edgewise Therapeutics, Inc., priority 2022, dated 2025).

Key:
Assay type in all cases: biochemical
Settings in all cases: Table 8
Porcine Atria myofibrils = assay: Myofibril ATPase assay (PK/LDH NADH-coupled), atria myofibrils
Procedure, shortened: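 Values are EC25% (and, for inhibitors, EC50%) from 4-parameter logistic fits of activity normalized to vehicle wells. Rates came from linear regression of 340 nm kinetic reads (every 1.5-2 min, 75 min) of NADH-coupled ATP turnover by porcine atria myofibrils.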

[1] = test system: Rabbit Skeletal myofibrils (rabbit psoas muscle); assay: Myofibril ATPase assay (PK/LDH NADH-coupled), skeletal myofibrils
Procedure, shortened: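 ATPase rate taken as linear-regression slope of A340 (NADH depletion through PK/LDH coupling) over a 75 min kinetic read, with psoas-derived rabbit skeletal myofibrils at pH 7.0. Four-parameter fits of vehicle-normalized activity give EC25 and, where reached, EC50.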

[2] = target: T1, Porcine Ventricle myofibrils (left ventricle of Yucatan minipigs) (Sus scrofa, UniProt P79293); assay: Myofibril ATPase assay (PK/LDH NADH-coupled), ventricle myofibrils
T1 construct: Myofibrils from porcine cardiac muscle was isolated from the left ventricle of Yucatan minipigs; tissue Exemplar Genetics; host or cells: left ventricle of Yucatan minipigs
T1 sequence (P79293 whole entry): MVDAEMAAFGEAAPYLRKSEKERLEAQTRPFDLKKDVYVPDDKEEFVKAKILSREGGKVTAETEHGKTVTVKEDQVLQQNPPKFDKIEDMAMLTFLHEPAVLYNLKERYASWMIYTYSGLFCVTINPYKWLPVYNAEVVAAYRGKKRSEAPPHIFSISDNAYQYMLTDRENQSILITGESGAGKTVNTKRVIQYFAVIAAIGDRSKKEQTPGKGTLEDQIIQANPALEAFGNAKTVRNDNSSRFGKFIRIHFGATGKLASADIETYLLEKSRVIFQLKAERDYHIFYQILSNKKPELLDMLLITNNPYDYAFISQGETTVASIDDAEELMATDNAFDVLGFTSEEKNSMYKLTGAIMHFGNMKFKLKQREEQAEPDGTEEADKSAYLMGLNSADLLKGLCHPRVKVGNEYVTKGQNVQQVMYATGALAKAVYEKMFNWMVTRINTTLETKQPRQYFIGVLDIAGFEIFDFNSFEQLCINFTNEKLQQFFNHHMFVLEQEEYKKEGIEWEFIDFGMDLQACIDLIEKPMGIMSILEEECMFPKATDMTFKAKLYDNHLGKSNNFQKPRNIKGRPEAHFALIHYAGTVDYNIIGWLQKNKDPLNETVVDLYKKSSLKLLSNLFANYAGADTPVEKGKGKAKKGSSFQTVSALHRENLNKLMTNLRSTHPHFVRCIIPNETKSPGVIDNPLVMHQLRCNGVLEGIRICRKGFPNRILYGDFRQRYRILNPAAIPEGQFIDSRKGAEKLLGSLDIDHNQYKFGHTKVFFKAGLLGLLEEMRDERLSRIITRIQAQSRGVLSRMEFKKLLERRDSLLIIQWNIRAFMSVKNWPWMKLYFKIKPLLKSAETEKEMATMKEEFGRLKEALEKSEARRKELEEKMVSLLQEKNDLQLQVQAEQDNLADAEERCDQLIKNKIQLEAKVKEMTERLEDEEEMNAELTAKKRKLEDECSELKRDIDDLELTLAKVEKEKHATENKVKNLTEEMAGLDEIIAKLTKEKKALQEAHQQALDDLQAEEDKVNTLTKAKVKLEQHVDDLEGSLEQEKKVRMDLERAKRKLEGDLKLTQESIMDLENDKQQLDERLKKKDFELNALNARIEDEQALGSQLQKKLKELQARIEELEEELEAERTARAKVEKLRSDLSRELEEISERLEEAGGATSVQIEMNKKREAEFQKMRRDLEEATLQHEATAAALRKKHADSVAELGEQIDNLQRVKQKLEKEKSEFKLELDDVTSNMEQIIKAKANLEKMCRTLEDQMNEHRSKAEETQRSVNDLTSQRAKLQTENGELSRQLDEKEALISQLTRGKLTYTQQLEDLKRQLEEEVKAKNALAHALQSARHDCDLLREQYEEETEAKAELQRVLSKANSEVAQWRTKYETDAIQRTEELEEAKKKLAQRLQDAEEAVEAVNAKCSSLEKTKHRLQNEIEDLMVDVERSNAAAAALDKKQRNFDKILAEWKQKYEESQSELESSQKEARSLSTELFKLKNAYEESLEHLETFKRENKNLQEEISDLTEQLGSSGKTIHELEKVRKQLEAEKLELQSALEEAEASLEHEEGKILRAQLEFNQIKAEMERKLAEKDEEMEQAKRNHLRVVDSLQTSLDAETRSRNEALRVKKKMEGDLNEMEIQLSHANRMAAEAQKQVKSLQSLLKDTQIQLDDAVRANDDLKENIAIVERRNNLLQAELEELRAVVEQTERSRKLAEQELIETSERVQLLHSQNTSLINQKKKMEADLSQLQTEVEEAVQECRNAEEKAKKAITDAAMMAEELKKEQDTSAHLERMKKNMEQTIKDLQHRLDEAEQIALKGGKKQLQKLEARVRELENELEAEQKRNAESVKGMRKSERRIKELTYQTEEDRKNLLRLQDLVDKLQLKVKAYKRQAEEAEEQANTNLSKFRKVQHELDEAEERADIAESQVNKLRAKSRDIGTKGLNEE
Procedure, shortened: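 NADH depletion (A340) coupled through pyruvate kinase/lactate dehydrogenase reports ATPase rate of porcine left-ventricle myofibrils over 75 min kinetic reads. Regression slopes, vehicle-normalized, fitted by 4-parameter logistic give EC25 and, where available, EC50.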

Compound	Porcine Atria IC25 (Porcine Atria myofibrils) [nM]	Rabbit Psoas IC25 [1] [nM]	Porcine Ventricle IC25 [2] [nM]
C[C@@H](NC(=O)CN1Cc2c(ccc(F)c2F)NC1=O)c1ncc(C#N)s1 [Compound B280]	610	1080	6550
C[C@@H](NC(=O)CN1Cc2c(ccc(F)c2F)NC1=O)c1ncc(C2COC2)cn1 [Compound B282]	86130	100000	100000
C[C@H](NC(=O)CN1Cc2c(ccc(F)c2F)NC1=O)c1ncc(C2COC2)cn1 [Compound B283]	900	100000	6490
C[C@@H](NC(=O)CN1Cc2c(ccc(F)c2F)NC1=O)c1cc2ccccc2cn1 [Compound B284]	870	100000	440
C[C@H](NC(=O)CN1Cc2c(ccc(F)c2F)NC1=O)c1cc2ccccc2cn1 [Compound B285]	100000	100000	100000
C[C@@H](NC(=O)CN1Cc2c(ccc(F)c2F)NC1=O)c1ccc2ncccc2n1 [Compound B286]	550	40680	8790
C[C@H](NC(=O)CN1Cc2c(ccc(F)c2F)NC1=O)c1ccc2ncccc2n1 [Compound B287]	75650	100000	100000
C[C@@H](NC(=O)CN1Cc2c(ccc(F)c2F)NC1=O)c1ccc2ccccc2n1 [Compound B288]	260	3980	5290
C[C@H](NC(=O)CN1Cc2c(ccc(F)c2F)NC1=O)c1ccc2ccccc2n1 [Compound B289]	100000	100000	100000
C[C@@H](NC(=O)CN1Cc2c(ccc(F)c2F)NC1=O)c1ncc(Br)cc1F [Compound B292]	160	420	540
N#Cc1cnc2c(c1)CC[C@H]2NC(=O)CN1C(=O)Nc2ccc(F)cc2C12CC2 [Compound B294]	46590	1830	39990
N#Cc1cnc2c(c1)CC[C@@H]2NC(=O)CN1C(=O)Nc2ccc(F)cc2C12CC2 [Compound B295]	250	170	350
O=C(CN1C(=O)Nc2ccc(F)c(F)c2C12CC2)N[C@@H]1COc2cc(F)cnc21 [Compound B296]	70	60	390
Cc1cccc2c1C1(CC1)N(CC(=O)N[C@@H]1COc3cc(C#N)cnc31)C(=O)N2 [Compound B299]	67410	63220	100000
Cc1cccc2c1C1(CC1)N(CC(=O)N[C@H]1COc3cc(C#N)cnc31)C(=O)N2 [Compound B300]	1420	1390	1420
Cc1cccc2c1C1(CC1)N(CC(=O)N[C@H](C)c1cnc(C#N)cn1)C(=O)N2 [Compound B301]	4280	2520	14900
Cc1cccc2c1C1(CC1)N(CC(=O)N[C@@H](C)c1cnc(C#N)cn1)C(=O)N2 [Compound B302]	1080	5650	2850
N#Cc1cc(F)c2c(c1)OC[C@H]2NC(=O)CN1C(=O)Nc2cccc(C#N)c2C12CC2 [Compound B303]	80	20	90
N#Cc1cc(F)c2c(c1)OC[C@@H]2NC(=O)CN1C(=O)Nc2cccc(C#N)c2C12CC2 [Compound B304]	1120	1050	3960
C[C@@H](NC(=O)CN1C(=O)Nc2ccc(F)c(F)c2C12CC2)c1ncc(C#N)cc1Cl [Compound B306]	100	610	180
C[C@H](NC(=O)CN1C(=O)Nc2ccc(F)c(F)c2C12CC2)c1ncc(C#N)cc1Cl [Compound B307]	50	20	70
Cc1cccc2c1C1(CC1)N(CC(=O)N[C@H](C)c1ncc(C#N)nc1C)C(=O)N2 [Compound B308]	20750	100000	100000

Compound	Porcine Atria IC25 (Porcine Atria myofibrils) [nM]	Rabbit Psoas IC25 [1] [nM]	Porcine Ventricle IC25 [2] [nM]
Cc1cccc2c1C1(CC1)N(CC(=O)N[C@@H](C)c1ncc(C#N)nc1C)C(=O)N2 [Compound B309]	10360	2230	10570
N#Cc1cnc2c(c1)OC[C@H]2NC(=O)CN1C(=O)Nc2cccc(C#N)c2C12CC2 [Compound B310]	160	80	370
N#Cc1cnc2c(c1)OC[C@@H]2NC(=O)CN1C(=O)Nc2cccc(C#N)c2C12CC2 [Compound B311]	100000	100000	86790
Cc1cccc2c1C1(CC1)N(CC(=O)N[C@@H]1COc3cc(C#N)cc(F)c31)C(=O)N2 [Compound B312]	100	50	180
Cc1cccc2c1C1(CC1)N(CC(=O)N[C@H]1COc3cc(C#N)cc(F)c31)C(=O)N2 [Compound B313]	2290	9120	3910
C[C@@H](NC(=O)CN1C(=O)Nc2ccc(F)c(F)c2C12CC2)c1cnc(C#N)cn1 [Compound B314]	40	120	500
C[C@H](NC(=O)CN1C(=O)Nc2ccc(F)c(F)c2C12CC2)c1cnc(C#N)cn1 [Compound B315]	50	20	90
N#Cc1cc(F)c2c(c1)OC[C@H]2NC(=O)CN1C(=O)Nc2ccc(F)c(F)c2C12CC2 [Compound B319]	70	5960	100
N#Cc1cc(F)c2c(c1)OC[C@@H]2NC(=O)CN1C(=O)Nc2ccc(F)c(F)c2C12CC2 [Compound B320]	230	330	240
N#Cc1cnc2c(c1)OC[C@H]2NC(=O)CN1C(=O)Nc2ccc(F)c(F)c2C12CC2 [Compound B321]	170	230	970
N#Cc1cnc2c(c1)OC[C@@H]2NC(=O)CN1C(=O)Nc2ccc(F)c(F)c2C12CC2 [Compound B322]	70	30	60
C[C@@H](NC(=O)CN1C(=O)Nc2ccc(F)c(F)c2C12CC2)c1ncc(C#N)cc1F [Compound B323]	100	630	320
C[C@H](NC(=O)CN1C(=O)Nc2ccc(F)c(F)c2C12CC2)c1ncc(C#N)cc1F [Compound B324]	40	30	50
Cc1nc(C#N)cnc1[C@@H](C)NC(=O)CN1C(=O)Nc2ccc(F)c(F)c2C12CC2 [Compound B325]	1040	2340	3210
Cc1nc(C#N)cnc1[C@H](C)NC(=O)CN1C(=O)Nc2ccc(F)c(F)c2C12CC2 [Compound B326]	160	20	60
Cc1cc(C#N)nnc1[C@@H](C)NC(=O)CN1C(=O)Nc2ccc(F)cc2C12CC2 [Compound B328]	1530	100000	100000
Cc1cc(C#N)nnc1[C@H](C)NC(=O)CN1C(=O)Nc2ccc(F)cc2C12CC2 [Compound B329]	200	130	420
Cc1nc(C#N)cnc1[C@@H](C)NC(=O)CN1C(=O)Nc2ccc(F)cc2C12CC2 [Compound B330]	80	50	190
Cc1nc(C#N)cnc1[C@H](C)NC(=O)CN1C(=O)Nc2ccc(F)cc2C12CC2 [Compound B331]	370	100000	66750
Cc1nc(C#N)ncc1[C@@H](C)NC(=O)CN1C(=O)Nc2ccc(F)cc2C12CC2 [Compound B332]	60	60	100
Cc1nc(C#N)ncc1[C@H](C)NC(=O)CN1C(=O)Nc2ccc(F)cc2C12CC2 [Compound B333]	100000	100000	100000
